Measurements published in US20090011424A1, “Cancer-suppressing agents” (Tokyo Medical and Dental University, priority 2005, published 2009).

Test system: NR1I2 gene
Experiment: RT-PCR of NR1I2 messenger RNA in 8 neuroblastoma cell lines cultured with 5-aza-dCyd
Format: cell-based, human
Conditions: 8 neuroblastoma cell lines lacking NR1I2 mRNA; 1 μM for 5 days
Description: Cell lines used were human-derived neuroblastoma cells SK-N-KS, SK-N-AS, SK-N-SH, SK-N-DZ, SH-SY5Y, MP-N-TS, MP-N-MS, KP-N-RT, KP-N-SIFA, KP-N-SILA, KP-N-TK, KP-N-YS, SMS-KCN, SMS-KAN, SJ-N-CG, NB-1, CHP134, IMR32, and GOTO (Saito-Ohara F, et al. Cancer Res., 63, 1876, 2003), which were derived from […] surgically excised samples. In addition, in order to obtain a material subjected to inhibition of DNA methylation, 5-aza-deoxycytidine (5-aza-dCyd) serving a DNA methyltransferase inhibitor was added to each cell at a concentration of 1 μM for 5 days during culture.
Under general culture conditions, 8 neuroblastoma cell lines lacking the expression of messenger RNA of NR1I2 gene were cultured with the addition of 5-aza-deoxycytidine (5-aza-dCyd) serving as a DNA methyltransferase inhibitor at a concentration of 1 μM for 5 days. The expression levels of messenger RNA of NR1I2 gene in the cells were compared with each other by RT-PCR (FIG. 4). As a control for the expression level obtained by RT-PCR, GAPDH was used.

In the case of Nc1ncn([C@H]2C[C@H](O)[C@@H](CO)O2)c(=O)n1 [5-aza-dCyd, 5-aza-deoxycytidine], the “expression of messenger RNA of NR1I2 gene” value is reported as “expression of messenger RNA of NR1I2 genes was observed”.
